Entries after “also recorded” stand apart in the source; their conditions may differ. Bridge positions count the residues as written; N and C are the ends. Square brackets hold non-standard residues; d marks the D form. Ends that are not written are not given here. Peptide text beside a SMILES is read from it. mPEG 20 kDa = 20 kDa monomethoxy-PEG attached via aldehyde at the N-terminus; hArg = N=C(N)NCCCC[C@H](N)C(=O)O

In test [1] the test system is IL-2 production in human whole blood. In kind it is cell-based.
In test [2] the target is T1, human Kv1.3 (Homo sapiens, UniProt P22001). In kind it is cell-based. Details: host or cells: HEK293.
The test system of test [3] is IFNγ production from human PBMCs. In kind it is cell-based.
For test [4], the system named is T cell proliferation in human PBMCs. Briefly: T cell proliferation (3H-thymidine incorporation), anti-CD3/anti-CD28 stimulated PBMCs. In kind it is cell-based. Conditions: aCD3/aCD28 stimulated PBMCs from two normal donors. From the text: Inhibition of T cell proliferation following anti-CD3 and anti-CD28 antibody stimulation of PBMCs. PBMC's were previously isolated from normal human donor Leukophoresis packs, purified by density gradient centrifugation (Ficoll Hypaque), cryopreserved in CPZ Cryopreservation Medium Complete (INCELL, MCPZF-100 plus 10% DMSO final). PBMC's were thawed (95% viability), washed, and seeded at 2×10^5 cells per well in culture medium (RPMI medium 1640; GIBCO) supplemented with 10% fetal calf serum, 100 U/ml penicillin, […] streptomycin, 2 mM L-glutamine, 100 μM non-essential amino acids, and 20 μM 2-ME) in 96-well flat-bottom tissue culture plates. Cells were pre-incubated with either anti-human CD32 (FcyRII) blocking antibody (per manufacturers instructions EASY SEP Human Biotin Selection Kit #18553, StemCell Technologies Vancouver, BC) or Fc-L10-ShK (100 nM-0.001 nM final) for 45 min. Fc-L10-ShK (100 nM-0.001 nM final) was then added to the cells containing anti-human CD32 blocking antibody while medium was added to the cells containing Fc-L10-ShK. Both sets were incubated for an additional 45 min before stimulating for 48 hr with aCD3/aCD28 (0.2 ng/ml and 100 ng/ml, respectively). Final assay volume was 200 ul. […] Cells were then harvested onto glass fiber filters and radioactivity was measured in a B-scintillation counter.
Background: Uptake of a labelled nucleoside into DNA is a usual measure of proliferation.

Test [5] concerns the target T1, human Kv1.3. Briefly: Immunohistochemistry, binding to HEK 293 cells overexpressing human Kv1.3. More on the design: expressed in transfected cells. Conditions: 5 μg/ml, fixed cells, confocal microscopy. Here is the method: Immunohistochemistry analysis of Fc-L10-ShK[1-35] binding to HEK 293 cells overexpressing human Kv1.3. HEK 293 cells overexpressing human Kv1.3 (HEK Kv1.3) were obtained from BioFocus plc (Cambridge, UK) and maintained per manufacturer's recommendation. The parental HEK 293 cell line was used as a control. Cells were plated on Poly-D-Lysine 24 well plates (#35-4414; Becton-Dickinson, Bedford, Mass.) and allowed to grow to approximately 70% confluence. HEK KV1.3 were plated at 0.5×10e5 cells/well in 1 ml/well of medium. HEK 293 cells were plated at a density of 1.5×10e5 cells/well in 1 ml/well of medium. Before staining, cells were fixed with formalin (Sigma HT50-1-1 Formalin solution, diluted 1:1 with PBS/0.5% BSA before use) by removing cell growth medium, adding 0.2 ml/well formalin solution and incubating at room temperature for ten minutes. Cells were stained by incubating with 0.2 ml/well of 5 μg/ml Fc-L10-ShK[1-35] in PBS/BSA for 30′ at room temperature. Fc-L10-ShK[1-35] was aspirated and then the cells were washed one time with PBS/0.5% BSA. Detection antibody (Goat F(ab)2 anti-human IgG-phycoerythrin; Southern Biotech Associates, Birmingham, Ala.) was added to the wells at 5 μg/ml in PBS/0.5% BSA and incubated for 30′ at room temperature. Wash cells once with PBS/0.5% BSA and examine using confocal microscopy (LSM 510 Meta Confocal Microscope; Carl Zeiss AG, Germany). […]

Test [6] relates to CD40L on T cells in human whole blood. In kind it is cell-based.
Test [7] deals with IFNγ production from human PBMCs. In kind it is cell-based. The source holds these as a separate data set.
Test [8] deals with T1, human Kv1.3. In kind it is binding. More on the design: expressed in transfected cells.
The subject of test [9] is IL-2R on T cells in human whole blood. In kind it is cell-based.
Test [10] has as its system IFN-g production in human whole blood. In kind it is cell-based.

T1 sequence (P22001 whole entry): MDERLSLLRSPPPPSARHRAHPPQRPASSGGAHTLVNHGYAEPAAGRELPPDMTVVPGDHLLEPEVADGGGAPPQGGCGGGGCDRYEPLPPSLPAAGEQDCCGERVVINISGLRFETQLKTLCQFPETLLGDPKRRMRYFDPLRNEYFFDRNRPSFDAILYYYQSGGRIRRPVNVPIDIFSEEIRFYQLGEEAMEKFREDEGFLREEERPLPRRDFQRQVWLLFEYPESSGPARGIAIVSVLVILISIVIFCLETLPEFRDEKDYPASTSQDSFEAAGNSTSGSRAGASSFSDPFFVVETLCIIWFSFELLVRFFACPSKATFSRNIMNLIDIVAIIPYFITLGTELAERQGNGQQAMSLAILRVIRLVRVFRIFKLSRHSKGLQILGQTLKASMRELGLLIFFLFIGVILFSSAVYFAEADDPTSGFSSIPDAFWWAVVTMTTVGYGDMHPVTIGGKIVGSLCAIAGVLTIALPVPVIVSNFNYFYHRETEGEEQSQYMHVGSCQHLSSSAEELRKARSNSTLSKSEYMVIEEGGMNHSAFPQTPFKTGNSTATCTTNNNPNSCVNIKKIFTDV

On to `CC[C@H](C)[C@@H]1NC(=O)[C@H](CCCCN)NC(=O)[C@@H](NC(=O)[C@H](CCCCN)NC(=O)[C@@H](NC(=O)[C@H](CC(N)=O)NC(=O)[C@@H](NC(=O)[C@@H](NC(=O)[C@@H](NC(=O)CN)C(C)C)[C@@H](C)CC)[C@@H](C)CC)C(C)C)CSSC[C@@H]2NC(=O)[C@H](CCCCN)NC(=O)CNC(=O)[C@H](Cc3ccccc3)NC(=O)[C@H](CCCNC(=N)N)NC(=O)[C@H](CCSC)NC(=O)CNC(=O)[C@H](C)NC(=O)[C@H](CCCCN)NC(=O)[C@H](CCCCN)NC(=O)[C@@H]3CSSC[C@@H](C(=O)N[C@H](C(=O)N4CCC[C@H]4C(=O)N[C@@H](CCCCN)C(=O)O)[C@@H](C)O)NC(=O)[C@H](Cc4c[nH]cn4)NC(=O)[C@H](CSSC[C@H](NC(=O)[C@H](CCC(N)=O)NC(=O)[C@H](CCCNC(=N)N)NC(=O)[C@H](CO)NC1=O)C(=O)N[C@@H](CC(C)C)C(=O)N[C@@H](CCC(=O)O)C(=O)N1CCC[C@H]1C(=O)N3)NC(=O)[C@H](CCCCN)NC(=O)CNC(=O)[C@H](CC(N)=O)NC(=O)[C@H](C)NC2=O` [OSK1[Ala-29]] (H-GVIINVKCKISRQCLEPCKKAGMRFGKCANGKCHCTPK-OH; disulfide 8-28, 14-33, 18-35), for which, in [1], the “potency in blocking the cytokine response relative to cyclosporin A” value was “several orders of magnitude more potent”. Consider “Fc-L10-OSK1[E16K,K20D]: Fc-L10 fusion of OSK1 with E16K and K20D substitutions (GVIINVKCKISRQCL[hArg]PCKDAGMRFGKCMNGKCACGGG; cysteine pairing not given here; also: Fc-L10 fusion)”, for which, in the test with human Kv1.3 [2], the “fold difference in Kv1.3 potency compared to Fc-L10-OSK1” value was found to be 1.3 fold and the hKv1.1/hKv1.3 amounted to 403. Molecule “Fc-L10-OSK1[K7S,E16K,K20D]: Fc-L10 fusion of OSK1 with K7S, E16K and K20D substitutions” displayed a hKv1.1/hKv1.3 with human Kv1.3 [2] of 12. Still for that read-out and setting: the value for “Fc-L10-OSK1[K7S]: Fc-L10 fusion of OSK1 with lysine to serine at position 7” was 269. With “Fc-L10-ShK[1-35]: Fc region of human IgG1 fused via L10 linker to Kv1.3 inhibitor peptide ShK[1-35]”, in [3], the “extent of inhibition of IFNg production” value is reported as “nearly complete inhibition”. In [4], the “inhibition of T cell proliferation” value was “potently inhibits proliferation of T cells in a dose-dependent manner”. In addition, the “binding to Kv1.3 overexpressing versus untransfected HEK 293 cells” value with human Kv1.3 [5] is listed as “binds to Kv1.3 overexpressing HEK 293 cells but shows little binding to untransfected cells”. In [6], the “thapsigargin-induced upregulation of CD40L on T cells in human whole blood (in words)” value is listed as “suppressed”. Further, in [7], the “extent of inhibition of IFNγ production” value is “complete inhibition”. The “response in enzyme-immunoassay on fixed HEK 293 cells stably transfected with human Kv1.3” value with human Kv1.3 [8] is given as “dose-dependent increase in response”. Further, in test [9], the “thapsigargin-induced upregulation of the IL-2R on T cells in human whole blood (in words)” value was “suppressed”. Regarding “Fc-L10-ShK[2-35]: human IgG1 Fc fused via 10 amino acid linker to ShK[2-35]”, the “thapsigargin-induced IL-2 production in human whole blood (in words)” value in [1] is “suppressed”. The “thapsigargin-induced IFN-g production in human whole blood (in words)” value in [10] is “suppressed”. Consider “IbTx: BKCa channel inhibitor peptide, purchased from Bachem (QFTDVDCSVSKECWSVCKDLFGVDRGKCMGKKCRCYQ; Definition of Artificial Sequence: Synthetic peptide)”, for which, in [1], the “thapsigargin-induced IL-2 production in human whole blood (in words)” value is “no significant activity”. Moreover, the “thapsigargin-induced upregulation of CD40L on T cells in human whole blood (in words)” value in test [6] is on record as “no significant activity”. For the same molecule, the “thapsigargin-induced IFN-g production in human whole blood (in words)” value in test [10] is “no significant activity”. The “thapsigargin-induced upregulation of the IL-2R on T cells in human whole blood (in words)” value in test [9] is “no significant activity”. Take “N-Terminally PEGylated-Des-Arg1-ShK: folded ShK[2-35] N-terminally mono-PEGylated with 20 kDa MeO-PEG-aldehyde by reductive amination ({mPEG 20 kDa}-SCIDTIPKSRCTAFQCKHSMKYRLSFCRKTCGTC; also: folded, disulfides present but pairing not given here)”: in the test with human Kv1.3 [2], the “block of human Kv1.3 current (in words)” value is listed as “active in blocking human Kv1.3”.

Regarding “SEQ ID No: 4989: OSK1 analog without beta strand 1 (labeled des 1-7), Table 42 (CKISRQCLKPCKDAGMRFGKCMNGKCHC-NH2; ends and bridges not checked)”, the “blockade of the whole blood cytokine response (IL-2 and IFNg; in words)” value (“blockade” below) in test [1] is listed as “retain activity in blocking inflammation”.

B1: FcLoop-L2-ShK-L2: ShK inserted into human IgG1 Fc loop with Gly linkers (protein)
chain: MDKTHTCPPCPAPELLGGPSVFLFPPKPKDTLMISRTPEVTCVVVDVSHEDPEVKFNWYVDGVEVHNAKTKPREEQYNSTYRVVSVLTVLHQDWLNGKEYKCKVSNKALPAPIEKTISKAKGQPREPQVYTLPPSRDELGGRSCIDTIPKSRCTAFQCKHSMKYRLSFCRKTCGTCGGTKNQVSLTCLVKGFYPSDIAVEWESNGQPENNYKTTPPVLDSDGSFFLYSKLTVDKSRWQQGNVFSCSVMHEALHNHYTQKSLSLSPGK
modifications: Definition of Artificial Sequence: Synthetic protein
B1: the “blockade” value in [1] is listed as “potent blockade”.

B2: PEGylated CH2-OSK1: CH2-OSK1 fusion protein mono-PEGylated with 20 kD methoxy-PEG-aldehyde (conjugate)
chain: MGGHHHHHHGGGPSVFLFPPKPKDTLMISRTPEVTCVVVDVSHEDPEVKFNWYVDGVEVHNAKTKPREEQYNSTYRVVSVLTVLHQDWLNGKEYKCKVSNKALPAPIEKTISGGGGSGGGGSGVIINVKCKISRQCLEPCKKAGMRFGKCMNGKCHCTPK
On to B2, for which the “blockade” value in test [1] is listed as “active in blocking inflammation; also recorded: modest blockade”.

B3: FcLoop-L2-OsK1-L2: OsK1 inserted into human IgG1 Fc loop between Leu139 and Thr140 with Gly linkers (protein)
chain: MDKTHTCPPCPAPELLGGPSVFLFPPKPKDTLMISRTPEVTCVVVDVSHEDPEVKFNWYVDGVEVHNAKTKPREEQYNSTYRVVSVLTVLHQDWLNGKEYKCKVSNKALPAPIEKTISKAKGQPREPQVYTLPPSRDELGGGVIINVKCKISRQCLEPCKKAGMRFGKCMNGKCHCTPKGGTKNQVSLTCLVKGFYPSDIAVEWESNGQPENNYKTTPPVLDSDGSFFLYSKLTVDKSRWQQGNVFSCSVMHEALHNHYTQKSLSLSPGK
modifications: Definition of Artificial Sequence: Synthetic protein
On to B3, for which, in test [1], the “blockade” value is reported as “potent blockade”.

The values above are taken from patent publication US7834164B2 (priority 2006, dated 2010).
